Experiment: Dissolution Test (Paddle Method), Method 2 of the Japanese Pharmacopoeia 14th Revised Edition
Assay type: physicochemical
Conditions: dissolution rate of olmesartan medoxomil, paddle 50 revolutions per minute, 900 mL JP-2, absorptiometry, average of two tablets
Protocol: Dissolution properties were measured for the drug products as obtained in the Examples and Comparative Examples by the following method, and the results are shown in the Table.
Testing was carried out in accordance with Method 2 of the Dissolution Test (Paddle Method) described in the 14th Revised Edition of the Japanese Pharmacopoeia, at the paddle revolution speed of 50 revolutions per minute and using 900 mL of Japanese Pharmacopoeia Solution 2 (JP-2) for the test solution. The test solution was sampled at 30 minutes and 60 minutes after the start of testing, and the dissolution rate of olmesartan medoxomil was measured by absorptiometry. [Toyama Sangyo Co., Ltd.: DISSOLUTION TESTER NTR-6000, Shimadzu Corporation: SPECTROPHOTOMETER UV-1600] Tests were carried out for two tablets, and average values are shown.

With `CCCc1nc(C(C)(C)O)c(C(=O)OCc2oc(=O)oc2C)n1Cc1ccc(-c2ccccc2-c2nnn[nH]2)cc1` [Comparative Example C-3, Olmesartan medoxomil] the “Dissolution rate (%) After 30 minutes” value (sampled at 30 minutes) was 60.0% and the “Dissolution rate (%) After 60 minutes” value (sampled at 60 minutes) was 68.4%.

Source: patent US20100237530A1, “COMPRESSED PREPARATION” (Daiichi Sankyo Company, Limited, priority 2006, published 2010)
